No end group written: not given here.

For the assay, the system named is YK-EC (HLA-A2-restricted CTL cell line) with HLA-A0201-positive T2 cells. In words: IFN-γ production by YK-EC incubated with peptide-pulsed T2 cells (ELISA). It is filed as cell-based, human. To be noted: 2×10^4 T2 cells pulsed with peptide at 10 μM over 2 hours, incubated with 1×10^5 YK-EC for 18 hours; IFN-γ in supernatant by ELISA; non peptide control 6.5. The protocol:
Specifically, 10^4 of VA-13 cells were placed in each well of 96-well microplate, and incubated in RPMI 1640 medium containing 10% FCS. VA-13 cells were doubly transfected with 30 μl mixture consisting of 100 ng of the recombinant plasmid for HLA-A0201 cDNA and 100 ng of 6DI by using Lipofectin reagent (GIBCO BRL). Transfectants were prepared in duplicate. After 5-hour-incubation, 200 μl of culture medium was added to the transfectants, and the incubation continued for 72 hours. The culture medium was removed and 2×10^4 YK-EC were added, which was followed by cultivation for 18 to 24 hours. The culture medium was recovered, and the amount of IFN-γ was measured by ELISA. Specifically, an anti-humnan IFN-γ mouse monoclonal antibody was allowed to adsorb on wells of 96-well microplate to provide a solid-phased antibody. After blocking non-specific bindings with bovine serum albumin, the solid-phased antibody was allowed to bind with IFN-γ in the test sample. Anti-human IFN-γ rabbit polyclonal antibody as a detection antibody was then allowed to bind, which was followed by binding with an anti-rabbit immunoglobulin goat antibody (Amersham) labeled with alkaline phosphatase. The plate was subjected to color development reaction with peroxdase color development kit T (Sumitomo Bakelite), and measurement of absorbance at 405 nm. The absorbance was compared with that obtained with standard IFN-γ to determine the amount of IFN-γ. In the control experiments, the following three groups of cells were treated in the same manner: cells without transfection (non-treated group); cells transfected with recombinant plasmid 6DI alone; and cells transfected with solely recombinant plasmid containing HLA-A201 cDNA. To 2×10^4 T2 cells (Immunogenetics, 21:235,1985), which cell is an HLA-A0201-positive T-B hybridoma cell line but lacks the ability to present endogenous peptides, were added each of six peptides prepared in Example 3 at 10 μM over 2 hours. After incubating with 1×10^5 YK-EC for 18 hours, the amount of IFN-γ in supernatant produced by YK-EC was measured by ELISA in the same manner as described in Example 2.
Background: An ELISA detects its analyte on a solid surface through an enzyme-linked reagent.
Turning to LLETTVQKV [650-658], the “Amount of INF-γ produced by YK-EC” value was 118.1 pg/mL. In the case of RVKAPNKSL [660-668], the “Amount of INF-γ produced by YK-EC” value is 71.1 pg/mL. To LLLCQNKGLL [642-651] belongs 112.4 pg/mL. With LLLCQNKGL [642-650], the “Amount of INF-γ produced by YK-EC” value worked out at 109.1 pg/mL. To AQKTPYIVL [778-786] belongs 105.4 pg/mL; to YVDETGRKL [712-720], 86.1 pg/mL.

(Values after patent US6664232B1, “HLA-A2 restraint tumor antigen peptide originating in SART-1” (Kyogo Itoh, priority 1998, dated 2003).)
